Strand notation (5' to 3'): a small letter for the sugar, then the base; units joined by * are phosphorothioate-linked, units joined directly phosphodiester-linked; [ ] holds rarer units or linkages, { } end groups; capitals alone tell only the bases. k = constrained ethyl (cEt); [5mC] = 5-methylcytosine; d = 2'-deoxy (DNA)

The test system of the first data set is human SMAD7 mRNA. Put plainly: Antisense inhibition of human SMAD7 mRNA expression in Hep3B cells by 3-10-3 cEt gapmers, 10,000 nM, electroporation (Example 2). The class given is cell-based. The note with it: Hep3B cells, electroporation with 10,000 nM antisense oligonucleotide, approximately 24 hours, SMAD7 mRNA by RT-PCR (RTS5062), relative to untreated control cells. The method, then: Antisense oligonucleotides were designed to target human SMAD7 mRNA and were tested for their effects on SMAD7 mRNA expression in vitro. The antisense oligonucleotides were tested in a series of experiments that had similar culture conditions, as described below. ION 771576, described in the studies above and which is a 5-10-5 MOE gapmer, was also included in these assays. Cultured Hep3B cells at a density of 20,000 cells per well were transfected using electroporation with 10,000 nM antisense oligonucleotide. After a treatment period of approximately 24 hours, RNA was isolated from the cells and SMAD7 mRNA levels were measured by quantitative real-time PCR. Primer probe set RTS5062 was used to measure human SMAD7 mRNA levels. SMAD7 mRNA levels were adjusted according to total RNA content, as measured by RIBOGREEN®. Results are presented as percent inhibition of SMAD7 mRNA expression, relative to untreated control cells.
The newly designed chimeric antisense oligonucleotides in the Tables below were designed as 3-10-3 cEt gapmers. The gapmers are 16 nucleosides in length, wherein the central gap segment comprises often 2′-deoxynucleosides and is flanked by wing segments on the 5′ direction and the 3′ direction comprising three nucleosides each. Each nucleoside in the 5′ wing segment and each nucleoside in the 3′ wing segment has a cEt sugar modification. The internucleoside linkages throughout each gapmer are phosphorothioate (P═S) linkages. All cytosine residues throughout each gapmer are 5-methylcytosines.
“Start site” indicates the 5′-most nucleoside to which the gapmer is targeted in the human gene sequence. “Stop site” indicates the 3′-most nucleoside to which the gapmer is targeted human gene sequence. […] Some of the oligonucleotides presented were complementary to SMAD7 mRNA sequences RefSeqNo. NM_001190821.1 (designated herein as SEQ ID NO: 3) or RefSeqNo. NM_001190822.1 (designated herein as SEQ ID NO: 4), and are presented in a separate table shown below.
For the substance “772889 (k[5mC]*kT*k[5mC]*d[5mC]*dA*dT*dT*d[5mC]*dA*dT*dA*dA*dT*kA*kT*kT; antisense) [compound 772889]”, the % Inhibition – broadly, the percentage by which the read-out fell short of the control – stood at 7%. Still for that read-out and setting: with “790458 (k[5mC]*kG*k[5mC]*d[5mC]*dA*dG*dT*d[5mC]*dT*d[5mC]*d[5mC]*d[5mC]*dG*kG*kA*kG; antisense) [compound 790458]” the figure was 0%; with “790460 (kA*kG*kG*dA*dG*d[5mC]*dG*dG*d[5mC]*dG*dG*d[5mC]*dG*kG*k[5mC]*k[5mC]; antisense) [compound 790460]”, 58%. The same measure, in the same setting: with “790464 (kA*kG*k[5mC]*dG*dA*dA*d[5mC]*dA*dT*dG*dA*d[5mC]*d[5mC]*kT*k[5mC]*k[5mC]; antisense) [compound 790464]” the figure was 58%. The same measure, in the same setting: with “790465 (kA*kA*kG*dG*dA*dG*d[5mC]*dG*dA*dA*d[5mC]*dA*dT*kG*kA*k[5mC]; antisense) [compound 790465]” the figure was 54%; with “790479 (kG*kG*k[5mC]*dA*dG*d[5mC]*dA*dG*dG*dA*dG*dG*d[5mC]*kA*k[5mC]*kG; antisense) [compound 790479]”, 43%; with “790485 (k[5mC]*kA*k[5mC]*d[5mC]*dT*dG*dA*dA*d[5mC]*dA*d[5mC]*dT*dT*kT*kG*k[5mC]; antisense) [compound 790485]”, 26%. For “790492 (kT*k[5mC]*k[5mC]*d[5mC]*dG*dT*dA*dA*dG*dA*dT*dT*d[5mC]*kA*k[5mC]*kA; antisense) [compound 790492]”, the “% Inhibition” value worked out at 38%.

The data set is the same for the next values; noted with them: Hep3B cells, electroporation with 10,000 nM antisense oligonucleotide, approximately 24 hours, primer probe set RTS5062, relative to untreated control cells.
Consider “772692 (kA*kA*kA*dG*d[5mC]*dA*d[5mC]*dT*dA*d[5mC]*dA*dA*dT*kG*k[5mC]*kT; antisense) [compound 772692]”, for which the “% Inhibition” value turned out to be 19%. In the case of “772696 (kT*k[5mC]*kT*d[5mC]*dT*d[5mC]*dA*dA*dA*dG*d[5mC]*dA*d[5mC]*kT*kA*k[5mC]; antisense) [compound 772696]”, the “% inhibition of SMAD7 mRNA expression” value was determined as 56%. With “772700 (k[5mC]*kT*kT*dT*dA*dA*dT*dA*dA*dA*dT*d[5mC]*dT*k[5mC]*kA*kG; antisense) [compound 772700]”, the “% Inhibition” value turned out to be 24%. The same measure, in the same setting: with “772702 (k[5mC]*kG*kT*d[5mC]*dT*dT*dT*dA*dT*dA*dT*dT*dT*kA*k[5mC]*kA; antisense) [compound 772702]” the figure was 23%.

With “772708 (kA*kA*kA*dG*dT*dG*d[5mC]*dA*dT*d[5mC]*dT*dT*dT*kT*k[5mC]*kT; antisense) [compound 772708]”, the “% inhibition of SMAD7 mRNA expression” value turned out to be 0%.

With “772709 (kT*kA*kA*dA*dG*d[5mC]*dA*dA*dA*dG*dT*dG*d[5mC]*kA*kT*k[5mC]; antisense) [compound 772709]”, the “% inhibition of SMAD7 mRNA expression” value was determined as 0%. Same read-out and setting: with “772712 (kA*k[5mC]*k[5mC]*d[5mC]*dA*dT*dA*dG*dA*dA*dA*dA*dA*kA*kA*k[5mC]; antisense) [compound 772712]” the figure was 0%.

For “772717 (kA*k[5mC]*kT*d[5mC]*d[5mC]*dT*dT*dT*dA*dG*dA*dA*dA*kA*kA*k[5mC]; antisense) [compound 772717]”, the “% inhibition of SMAD7 mRNA expression” value was determined as 28%. Still for that read-out and setting: with “790461 (k[5mC]*k[5mC]*kG*dG*dG*d[5mC]*dA*dG*dG*dA*dG*d[5mC]*dG*kG*k[5mC]*kG; antisense) [compound 790461]” the figure was 42%; with “790462 (kG*k[5mC]*kG*d[5mC]*dA*dG*dG*d[5mC]*dG*dA*d[5mC]*dA*dG*k[5mC]*kA*kG; antisense) [compound 790462]”, 43%.

In the case of “790468 (kG*k[5mC]*kG*dA*dG*dG*dA*dG*dA*dA*dA*dA*dG*kT*k[5mC]*kG; antisense) [compound 790468]”, the “% inhibition of SMAD7 mRNA expression” value came out at 0%. “790489 (k[5mC]*kT*k[5mC]*dT*dT*dG*dA*d[5mC]*dT*dT*d[5mC]*d[5mC]*dG*kA*kG*kG; antisense) [compound 790489]”: the “% inhibition of SMAD7 mRNA expression” value was determined as 0%.

The same data set, now with this note: Hep3B cells, electroporation, 10,000 nM antisense oligonucleotide, approximately 24 hours, RTS5062, relative to untreated control cells.
“772786 (kG*kA*k[5mC]*d[5mC]*dA*d[5mC]*dA*dG*d[5mC]*dA*d[5mC]*d[5mC]*dT*kT*kG*kT; antisense) [compound 772786]”: the “% inhibition of SMAD7 mRNA expression” value worked out at 19%. In the case of “772801 (kG*kA*k[5mC]*dA*dA*dA*d[5mC]*d[5mC]*dT*dT*d[5mC]*d[5mC]*dG*kA*kA*kA; antisense) [compound 772801]”, the “% inhibition of SMAD7 mRNA expression” value worked out at 34%.

“772813 (kA*kA*kG*dG*dG*d[5mC]*dG*d[5mC]*dA*dG*dG*dA*dA*kA*kG*kG; antisense) [compound 772813]”: the “% inhibition of SMAD7 mRNA expression” value came out at 43%.

The data set is the same for the next values; noted with them: SMAD7 mRNA, Hep3B cells, 10,000 nM antisense oligonucleotide, electroporation, approximately 24 hours, primer probe set RTS5062, relative to untreated control cells.
Consider “772711 (kA*kA*kA*d[5mC]*dA*d[5mC]*d[5mC]*dA*dA*dT*d[5mC]*dT*dT*kG*kT*kG; antisense) [compound 772711]”, for which the “% Inhibition” value was 0%.

As to “772713 (kA*kT*kA*dA*d[5mC]*dA*d[5mC]*d[5mC]*d[5mC]*dA*dT*dA*dG*kA*kA*kA; antisense) [compound 772713]”, the “% Inhibition” value was 24%. Still for that read-out and setting: with “772714 (kA*kG*kG*dT*dG*dA*dT*dA*dA*d[5mC]*dA*d[5mC]*d[5mC]*k[5mC]*kA*kT; antisense) [compound 772714]” the figure was 0%; with “772715 (kA*kG*k[5mC]*dT*dA*dG*dG*dT*dG*dA*dT*dA*dA*k[5mC]*kA*k[5mC]; antisense) [compound 772715]”, 0%. The same measure, in the same setting: with “772733 (kG*kG*kT*dG*dA*dT*dT*dG*d[5mC]*d[5mC]*dT*dT*dG*kA*kT*kA; antisense) [compound 772733]” the figure was 39%; with “772734 (kA*kG*kG*d[5mC]*dA*dG*dG*dG*d[5mC]*d[5mC]*dG*d[5mC]*dG*kA*kG*kG; antisense) [compound 772734]”, 16%. On to “772735 (kA*kA*k[5mC]*dT*dG*dT*dT*dT*dG*dT*d[5mC]*dT*dT*kA*kG*k[5mC]; antisense) [compound 772735]”, for which the “% Inhibition” value is listed as 52%.

As for “772738 (kA*k[5mC]*k[5mC]*dA*dG*dT*dT*dG*dG*dT*dT*dT*dG*kA*kG*kA; antisense) [compound 772738]”, the “% Inhibition” value is 16%. For the substance “772739 (kT*kA*k[5mC]*dT*d[5mC]*dA*d[5mC]*d[5mC]*dA*dG*dT*dT*dG*kG*kT*kT; antisense) [compound 772739]”, the “% Inhibition” value stood at 0%.

With “772762 (kA*kT*kT*dT*dT*dG*d[5mC]*dT*dA*d[5mC]*d[5mC]*dT*dA*kA*kT*kG; antisense) [compound 772762]”, the “% Inhibition” value was determined as 11%.

Regarding “772765 (kG*kA*kT*dT*dG*dG*d[5mC]*dA*dG*dG*dT*dT*dA*kA*kT*k[5mC]; antisense) [compound 772765]”, the “% Inhibition” value is reported as 35%.

Consider “772808 (k[5mC]*k[5mC]*k[5mC]*d[5mC]*dA*dT*dT*d[5mC]*dA*dT*dT*dA*dA*kG*k[5mC]*k[5mC]; antisense) [compound 772808]”, for which the “% Inhibition” value came to 34%.

Regarding “772809 (k[5mC]*k[5mC]*kT*dA*dA*dA*d[5mC]*dT*dG*dA*dG*d[5mC]*d[5mC]*k[5mC]*k[5mC]*kA; antisense) [compound 772809]”, the “% Inhibition” value was 48%. For “772929 (k[5mC]*kG*kG*dA*dA*dG*dT*d[5mC]*dT*dT*dG*dT*dA*kT*kT*kT; antisense) [compound 772929]”, the “% Inhibition” value was 37%. As to “790463 (kA*kT*kG*dA*dA*dG*dA*dA*dG*dT*d[5mC]*dG*dG*kG*k[5mC]*kG; antisense) [compound 790463]”, the “% Inhibition” value amounted to 53%. Still for that read-out and setting: with “790469 (k[5mC]*kG*kG*dA*d[5mC]*dG*dA*dG*d[5mC]*dG*d[5mC]*dA*dG*kA*kT*k[5mC]; antisense) [compound 790469]” the figure was 41%; with “790471 (k[5mC]*kG*k[5mC]*d[5mC]*dG*dG*dG*d[5mC]*dG*d[5mC]*dA*d[5mC]*dG*kG*k[5mC]*kT; antisense) [compound 790471]”, 4%; with “790484 (kG*kA*kA*d[5mC]*dA*d[5mC]*dT*dT*dT*dG*d[5mC]*dA*d[5mC]*kA*kG*k[5mC]; antisense) [compound 790484]”, 62%. “790486 (kT*kG*k[5mC]*d[5mC]*dT*dG*dA*dG*dA*dT*d[5mC]*d[5mC]*dG*kG*k[5mC]*k[5mC]; antisense) [compound 790486]”: the “% Inhibition” value worked out at 23%. Still for that read-out and setting: with “790491 (kG*kT*kA*dA*dG*dA*dT*dT*d[5mC]*dA*d[5mC]*dA*dG*k[5mC]*kA*kA; antisense) [compound 790491]” the figure was 56%.

Values taken from patent publication US10517889B2, “Modulators of SMAD7 expression” (Ionis Pharmaceuticals, Inc., priority 2017, dated 2019).
